Data published in ChEMBL document CHEMBL3885861, “Open TG-GATES”.

Organism: Rattus norvegicus
Assay: Open TG-GATES - Regimen: Daily Repeat
Type: toxicity, organism-based, Sprague-Dawley
Parameters: regimen Daily Repeat, gender Male, age 6 weeks
Details: in vivo, po, 200 mg/kg, route gavage, dose level High; for APTT / Bas / Eos / Fbg / Hb / Ht / Lym / MCH / MCHC / MCV / Mono / Neu / PT / Plat / RBC / Ret / WBC: tissue Blood; for KIDNEY_L / KIDNEY_R / KIDNEY_TOTAL: tissue Kidney; for LIVER: tissue Liver; for A/G / ALP / ALT / AST / BUN / CRE / Ca / Cl / DBIL / GLC / IP / K / LDH / Na / PL / RALB / TBIL / TC / TG / TP / gamma-GTP: tissue Plasma

`Cn1c(=O)c2[nH]cnc2n(C)c1=O.O` [THEOPHYLLINE] gave a TERMINAL_BW (72 h, time 3 day) of 221.1 g, an APTT (72 h, time 3 day) of 22.1 s and a Bas (72 h, time 3 day) of 0%. It also gave an Eos (72 h, time 3 day) of 0.5%, a Fbg (72 h, time 3 day) of 438.5 mg/dL and a Hb (72 h, time 3 day) of 15 g/dL. The Ht (72 h, time 3 day) was 44.8%, the Lym (72 h, time 3 day) was 77.8% and the MCH (72 h, time 3 day) was 21.1 pg. For the same compound, the MCHC (72 h, time 3 day) was 33.5%, the MCV (72 h, time 3 day) was 63 fL and the Mono (72 h, time 3 day) was 3.8%. For the same compound, the Neu (72 h, time 3 day) was 15.8%, the PT (72 h, time 3 day) was 16.7 s and the Plat (72 h, time 3 day) was 134.2 x10_4/uL. It also gave an RBC (72 h, time 3 day) of 711.5 x10_4/ul, a Ret (72 h, time 3 day) of 6.6% and a WBC (72 h, time 3 day) of 107.4 x10_2/uL. It also gave a KIDNEY_L (72 h, time 3 day) of 0.9 g, a KIDNEY_R (72 h, time 3 day) of 0.9 g and a KIDNEY_TOTAL (72 h, time 3 day) of 1.9 g. It also gave an LIVER (72 h, time 3 day) of 9.5 g, an A/G (72 h, time 3 day) of 1.2 and an ALP (72 h, time 3 day) of 1278.8 IU/L. For the same compound, the ALT (72 h, time 3 day) was 42.5 IU/L, the AST (72 h, time 3 day) was 73.2 IU/L and the BUN (72 h, time 3 day) was 15.2 mg/dL. It also gave a CRE (72 h, time 3 day) of 0.2 mg/dL, a Ca (72 h, time 3 day) of 10.9 mg/dL and a Cl (72 h, time 3 day) of 106.8 meq/L. For the same compound, the DBIL (72 h, time 3 day) was 0 mg/dL, the GLC (72 h, time 3 day) was 178.8 mg/dL and the IP (72 h, time 3 day) was 7.3 mg/dL. The K (72 h, time 3 day) was 4.3 meq/L, the LDH (72 h, time 3 day) was 198.8 IU/L and the Na (72 h, time 3 day) was 141.8 meq/L. It also gave a PL (72 h, time 3 day) of 122.8 mg/dL, an RALB (72 h, time 3 day) of 3.1 g/dL and a TBIL (72 h, time 3 day) of 0.0075 mg/dL. For the same compound, the TC (72 h, time 3 day) was 75 mg/dL, the TG (72 h, time 3 day) was 37.8 mg/dL and the TP (72 h, time 3 day) was 5.7 g/dL. For the same compound, the gamma-GTP (72 h, time 3 day) was 1.5 IU/L, the TERMINAL_BW ([…], time 7 day) was 254.4 g and the TERMINAL_BW ([…], time 14 day) was 288.8 g. It also gave a TERMINAL_BW ([…], time 28 day) of 371.8 g, an APTT ([…], time 7 day) of 23 s and a Bas ([…], time 7 day) of 0%. The Eos ([…], time 7 day) was 0.2%, the Fbg ([…], time 7 day) was 354 mg/dL and the Hb ([…], time 7 day) was 14.6 g/dL. The Ht ([…], time 7 day) was 43%, the Lym ([…], time 7 day) was 67.4% and the MCH ([…], time 7 day) was 20.2 pg. The MCHC ([…], time 7 day) was 33.9%, the MCV ([…], time 7 day) was 59.7 fL and the Mono ([…], time 7 day) was 4.6%. It also gave a Neu ([…], time 7 day) of 26%, a PT ([…], time 7 day) of 16.7 s and a Plat ([…], time 7 day) of 117.7 x10_4/uL. It also gave an RBC ([…], time 7 day) of 720.6 x10_4/ul, a Ret ([…], time 7 day) of 6% and a WBC ([…], time 7 day) of 116.9 x10_2/uL. For the same compound, the APTT ([…], time 14 day) was 24.8 s, the Bas ([…], time 14 day) was 0% and the Eos ([…], time 14 day) was 0.2%. The Fbg ([…], time 14 day) was 337 mg/dL, the Hb ([…], time 14 day) was 15.5 g/dL and the Ht ([…], time 14 day) was 45.7%. It also gave a Lym ([…], time 14 day) of 77%, an MCH ([…], time 14 day) of 20.1 pg and an MCHC ([…], time 14 day) of 33.8%. For the same compound, the MCV ([…], time 14 day) was 59.5 fL, the Mono ([…], time 14 day) was 3.2% and the Neu ([…], time 14 day) was 18.2%. The PT ([…], time 14 day) was 16.1 s, the Plat ([…], time 14 day) was 102.3 x10_4/uL and the RBC ([…], time 14 day) was 767.8 x10_4/ul. The Ret ([…], time 14 day) was 4.7%, the WBC ([…], time 14 day) was 128.3 x10_2/uL and the APTT ([…], time 28 day) was 27.4 s. It also gave a Bas ([…], time 28 day) of 0%, an Eos ([…], time 28 day) of 1% and a Fbg ([…], time 28 day) of 349 mg/dL. The Hb ([…], time 28 day) was 16.1 g/dL, the Ht ([…], time 28 day) was 46.7% and the Lym ([…], time 28 day) was 76.5%. It also gave an MCH ([…], time 28 day) of 19.9 pg, an MCHC ([…], time 28 day) of 34.5% and an MCV ([…], time 28 day) of 57.7 fL. The Mono ([…], time 28 day) was 2.5%, the Neu ([…], time 28 day) was 19% and the PT ([…], time 28 day) was 16.6 s. For the same compound, the Plat ([…], time 28 day) was 91.7 x10_4/uL, the RBC ([…], time 28 day) was 810 x10_4/ul and the Ret ([…], time 28 day) was 3.6%. It also gave a WBC ([…], time 28 day) of 133.1 x10_2/uL, a KIDNEY_L ([…], time 7 day) of 1.1 g and a KIDNEY_R ([…], time 7 day) of 1.1 g. For the same compound, the KIDNEY_TOTAL ([…], time 7 day) was 2.1 g, the KIDNEY_L ([…], time 14 day) was 1.2 g and the KIDNEY_R ([…], time 14 day) was 1.3 g. The KIDNEY_TOTAL ([…], time 14 day) was 2.5 g, the KIDNEY_L ([…], time 28 day) was 1.4 g and the KIDNEY_R ([…], time 28 day) was 1.4 g. For the same compound, the KIDNEY_TOTAL ([…], time 28 day) was 2.8 g, the LIVER ([…], time 7 day) was 11.2 g and the LIVER ([…], time 14 day) was 11.7 g. It also gave an LIVER ([…], time 28 day) of 15.5 g, an A/G ([…], time 7 day) of 1.2 and an ALP ([…], time 7 day) of 1736.2 IU/L. The ALT ([…], time 7 day) was 58.6 IU/L, the AST ([…], time 7 day) was 79 IU/L and the BUN ([…], time 7 day) was 16.6 mg/dL. The CRE ([…], time 7 day) was 0.2 mg/dL, the Ca ([…], time 7 day) was 10.8 mg/dL and the Cl ([…], time 7 day) was 104.2 meq/L. For the same compound, the DBIL ([…], time 7 day) was 0 mg/dL, the GLC ([…], time 7 day) was 173 mg/dL and the IP ([…], time 7 day) was 8.2 mg/dL. For the same compound, the K ([…], time 7 day) was 4.4 meq/L, the LDH ([…], time 7 day) was 182.6 IU/L and the Na ([…], time 7 day) was 142 meq/L. The PL ([…], time 7 day) was 134.6 mg/dL, the RALB ([…], time 7 day) was 3.3 g/dL and the TBIL ([…], time 7 day) was 0.01 mg/dL. The TC ([…], time 7 day) was 74 mg/dL, the TG ([…], time 7 day) was 65.6 mg/dL and the TP ([…], time 7 day) was 5.9 g/dL. It also gave a gamma-GTP ([…], time 7 day) of 2.2 IU/L, an A/G ([…], time 14 day) of 1.2 and an ALP ([…], time 14 day) of 1300.2 IU/L. It also gave an ALT ([…], time 14 day) of 54 IU/L, an AST ([…], time 14 day) of 85 IU/L and a BUN ([…], time 14 day) of 13.8 mg/dL. For the same compound, the CRE ([…], time 14 day) was 0.2 mg/dL, the Ca ([…], time 14 day) was 10.4 mg/dL and the Cl ([…], time 14 day) was 104.8 meq/L. The DBIL ([…], time 14 day) was 0 mg/dL, the GLC ([…], time 14 day) was 175.5 mg/dL and the IP ([…], time 14 day) was 8.7 mg/dL. It also gave a K ([…], time 14 day) of 4.2 meq/L, an LDH ([…], time 14 day) of 137.2 IU/L and a Na ([…], time 14 day) of 141.8 meq/L. For the same compound, the PL ([…], time 14 day) was 128.8 mg/dL, the RALB ([…], time 14 day) was 3.2 g/dL and the TBIL ([…], time 14 day) was 0.02 mg/dL. The TC ([…], time 14 day) was 70.5 mg/dL, the TG ([…], time 14 day) was 64.2 mg/dL and the TP ([…], time 14 day) was 5.8 g/dL. For the same compound, the gamma-GTP ([…], time 14 day) was 2.2 IU/L, the A/G ([…], time 28 day) was 1.1 and the ALP ([…], time 28 day) was 1103 IU/L. It also gave an ALT ([…], time 28 day) of 54 IU/L, an AST ([…], time 28 day) of 92.5 IU/L and a BUN ([…], time 28 day) of 16.5 mg/dL. It also gave a CRE ([…], time 28 day) of 0.2 mg/dL, a Ca ([…], time 28 day) of 10.8 mg/dL and a Cl ([…], time 28 day) of 105 meq/L. For the same compound, the DBIL ([…], time 28 day) was 0 mg/dL, the GLC ([…], time 28 day) was 186.5 mg/dL and the IP ([…], time 28 day) was 7.5 mg/dL. For the same compound, the K ([…], time 28 day) was 4.1 meq/L, the LDH ([…], time 28 day) was 140.5 IU/L and the Na ([…], time 28 day) was 143 meq/L. For the same compound, the PL ([…], time 28 day) was 133.5 mg/dL, the RALB ([…], time 28 day) was 3.3 g/dL and the TBIL ([…], time 28 day) was 0.025 mg/dL. It also gave a TC ([…], time 28 day) of 66 mg/dL, a TG ([…], time 28 day) of 90 mg/dL and a TP ([…], time 28 day) of 6.5 g/dL. It also gave a gamma-GTP ([…], time 28 day) of 2.5 IU/L.
